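Dose response: 5 concentrations. Exposure: 48 h. Format: 96-well plates. Endpoint: linear interpolation; highest concentration if not reached. At the TGI there is no net growth.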

What all share (test): NCI tumour cell line growth inhibition, 48 h
Test [1] has as its system MDA-MB-231 breast.
In test [2] the test system is NCI-H522 lung.
Test [3] concerns RPMI-8226 leukemia.
In test [4] the test system is HOP-62 NSCLC.
Test [5] has as its system MALME-3M melanoma.
In test [6] the test system is OVCAR-3 ovarian.
Test [7] concerns HS 578T breast.
Test [8] relates to NCI/ADR-RES ovarian.
Test [9] relates to 786-0 renal.
For test [10], the system named is COLO 205 colon.
Test [11] deals with HT29 colon.
For test [12], the system named is NCI-H460 lung.
For test [13], the system named is T-47D breast.
Test [14] deals with SF-539 CNS.
Test [15] deals with MDA-MB-435.
Test [16] has as its system OVCAR-5 ovarian.
In test [17] the test system is SN12C renal.
Test [18] relates to HCT-116 colon.
The test system of test [19] is A549 NSCLC.
The test system of test [20] is A498 renal.

With `CCOC(=O)c1ccc(-c2cccs2)n1C`, the TGI in [1], in test [2], in test [3], in test [4], in test [5] and in test [6] was above 100 µM each time. Besides, the TGI in test [7], in [8], in [9], in [10], in test [11] and in [12] was above 100 µM throughout. Further, the TGI in [13] was above 92.4 µM; in [14], above 100 µM; in test [15], above 100 µM; in test [16], above 100 µM; in test [17], above 100 µM; in test [18] it was above 100 µM. For the same molecule, the TGI in test [19] and in [20] was above 100 µM in each case.

For `Cc1cc2c(cc1Cl)SC(NN(C)C)=NS2(=O)=O`, the TGI in test [1], in [2], in test [3], in test [4], in [5] and in [6] was above 10 µM throughout. For the same molecule, the TGI in [7], in test [8], in [9], in [10], in [11] and in test [12] was above 10 µM throughout. Also, the TGI in test [13], in test [14], in [15], in [16], in [17] and in test [18] was above 10 µM throughout. The TGI in test [19] and in test [20] was above 10 µM throughout.

Consider `Oc1c(Cl)ccc2cccnc12`, for which the TGI in test [1] is above 100 µM; in test [2], 7.78 µM; in [3], 8.28 µM; in [4], 59.6 µM; in [5] it was above 100 µM; in test [6], above 100 µM. Further, the TGI in test [7] was above 100 µM; in test [8], 3.43 µM; in test [9] it was 51.4 µM; in test [10] it was above 100 µM; in [11], above 100 µM; in [12], 88 µM. The TGI in test [13] is 25.8 µM; in test [14], 34.7 µM; in test [15], above 100 µM; in test [16], above 100 µM; in test [17], 88.5 µM; in test [18], 4.56 µM. The figures for the TGI in [19] and in test [20] were above 100 µM and 33.1 µM, respectively.

For the molecule `NC(=O)ON=C1CCN(Cc2ccccc2)CC1`, the TGI in [1], in [2], in [3], in test [4], in [5] and in test [6] was above 100 µM in each case. Further, the TGI in test [7], in test [8], in test [9], in test [10], in [11] and in test [12] was above 100 µM each time. Further, the TGI in test [13], in test [14], in test [15], in test [16], in test [17] and in [18] was above 100 µM each time. Also, the TGI in [19] and in test [20] was above 100 µM each time.

With `CCC(C#N)N(Cc1ccc(CN(C(=O)c2ccccc2)C(C#N)CC)cc1)C(=O)c1ccccc1` (stereo not drawn), the TGI in [1] is 85.2 µM; in test [2] it was above 100 µM; in test [3] it was 42.7 µM; in test [4], 90.4 µM; in test [5] it was 88.5 µM; in test [6] it was 48.2 µM. Also, the TGI was above 100 µM in [7]; above 100 µM in test [8]; 50.2 µM in test [9]; 31.3 µM in test [10]; 43.9 µM in test [11]; 67 µM in [13]. In addition, the TGI in [14] was 48.6 µM; in [15], 65.7 µM; in test [16], above 100 µM; in test [17] it was 69.3 µM; in test [18] it was 96.8 µM; in test [19] it was above 100 µM. The molecule also returned a TGI in test [20] of 65 µM.

For the molecule `CCOC(=O)c1c(NS(=O)(=O)c2ccc(Br)cc2)sc2c1CCCC2`, the TGI in test [1] is 16.1 µM; in test [2], 16.2 µM; in test [3] it was 30.5 µM; in [4], 14.1 µM; in test [5], 27.9 µM; in test [6] it was 9.9 µM. Also, the TGI is 35.5 µM in [7]; 3.72 µM in test [8]; 29.4 µM in [9]; 32.1 µM in test [10]; 10.1 µM in [11]; 13.9 µM in test [12]. Besides, the TGI in test [13] was 14.5 µM; in test [14], 19.8 µM; in test [15], 49.1 µM; in test [16], 18.3 µM; in test [17] it was 12.1 µM; in test [18] it was 21.1 µM. Moreover, the TGI in test [19] worked out at 26.5 µM; in test [20], 42.2 µM.

On to `COc1ccc2cc(-c3ccc(OC)c(OC)c3)c(=O)oc2c1`, for which the TGI in test [1], in [2], in test [3], in test [4], in test [5] and in test [6] was above 100 µM in each case. In addition, the TGI in [7], in test [8], in [9], in [10], in [11] and in test [12] was above 100 µM throughout. In addition, the TGI in test [13], in [14], in test [15], in [16], in [17] and in [18] was above 100 µM throughout. Also, the TGI in test [19] and in test [20] was above 100 µM in each case.

For `COc1ccc(-c2cn3c(nc4ccccc43)c(C)n2)cc1`, the TGI in test [1], in [2], in [3], in test [4], in test [5] and in test [6] was above 100 µM in each case. Besides, the TGI in [7], in [8], in test [9], in test [10], in [11] and in [12] was above 100 µM in each case. The TGI in [13] is above 67.3 µM; in [14] it was above 100 µM; in test [15] it was above 100 µM; in test [16], above 100 µM; in test [17], above 100 µM; in test [18], above 100 µM. Also, the TGI in [19] and in test [20] was above 100 µM throughout.

On to `O=[N+]([O-])c1nccn1CCCN=c1c2ccccc2n(O)c2ccccc12`, for which the TGI in [1], in test [2], in [3], in test [4], in test [5] and in test [6] was above 100 µM in each case. The TGI in test [7] is above 100 µM; in [8], above 100 µM; in test [9] it was above 100 µM; in test [10], 55.6 µM; in [11], above 100 µM; in test [12], above 100 µM. In addition, the TGI in [13], in test [14], in test [15], in [16], in [17] and in test [18] was above 100 µM throughout. Besides, the TGI in test [19] and in test [20] was above 100 µM each time.

With `C/C(Sc1ccccc1)=C1/CCCN(Cc2ccccc2)C1`, the TGI in test [1] amounted to 76.5 µM; in test [2], 38.8 µM; in test [3], 43.3 µM; in test [4] it was 61.4 µM; in [5], 28.6 µM; in test [6] it was 38.8 µM. Moreover, the TGI in test [7] was 41.4 µM; in test [8], 74.1 µM; in test [9] it was 50.3 µM; in test [10], 32.9 µM; in [11], above 100 µM; in [12], 96.1 µM. Also, the TGI in test [13] was 33.5 µM; in test [14], above 100 µM; in test [15] it was 87.7 µM; in test [16], 67.5 µM; in [19], above 100 µM; in [20] it was above 100 µM.

As to `O=c1oc2ccccc2c(-c2ccc(O)cc2)c1Oc1ccc(Cl)cc1`, the TGI in [1] was 90.6 µM; in [2], 43.7 µM; in test [3] it was 52.4 µM; in [5], 55 µM; in [6], 39.7 µM; in test [7], above 100 µM. For the same molecule, the TGI is 82.3 µM in test [8]; 73 µM in [9]; 56.2 µM in [10]; 64.1 µM in test [11]; 54.4 µM in test [12]; above 100 µM in test [13]. Further, the TGI in test [14] is above 100 µM; in [15] it was above 100 µM; in test [16], above 100 µM; in test [17], 79.7 µM; in [18], 35.6 µM; in test [19] it was 47.3 µM. The molecule also had a TGI in test [20] of 77.2 µM.

Regarding `CSc1c(C#N)c(O)n(-c2ccc(Cl)cc2)c(=O)c1C#N`, the TGI in test [1], in test [2], in test [3], in test [5], in test [6] and in [7] was above 100 µM throughout. Also, the TGI in [8], in test [9], in [10], in test [11], in [12] and in test [13] was above 100 µM throughout. The TGI in test [14], in test [15], in test [16], in [17], in test [18] and in test [19] was above 100 µM throughout. In test [20], this molecule registered a TGI above 100 µM.

As for `C[C@@]12C[C@@H](c3ccccc3O1)N1CCSC1=N2`, the TGI in test [1], in test [2], in test [3], in test [4], in test [5] and in [6] was above 100 µM each time. The TGI in [7], in test [8], in test [9], in [10], in test [11] and in [12] was above 100 µM in each case. The TGI in [13], in [14], in test [15], in test [16], in test [17] and in test [18] was above 100 µM each time. Moreover, in test [20], the TGI was above 100 µM.

As to `CNC(=S)NNC1=NCCCN1`, the TGI in test [1], in test [2], in test [3], in [4], in [5] and in test [6] was above 100 µM in each case. In addition, the TGI in [7], in test [8], in test [9], in test [10], in test [11] and in test [12] was above 100 µM throughout. Further, the TGI in test [13], in test [14], in [15], in test [16], in test [18] and in [19] was above 100 µM in each case. Also, the TGI in test [20] is above 100 µM.

(Values after PubChem BioAssay (NCI).)
